Reference: patent US20240024291A1, “Uses of Dihydroorotate Dehydrogenase Inhibitors” (University of Maryland, Baltimore, priority 2022, published 2024)

Experiments:
Mayo 6 = experiment: Approved Oncology Drugs Set screen alone and combined with DHODHi; settings: for Alone (growth, drug alone): Mayo 6, drug alone; for Combination (growth, drug combined with DHODHi): Mayo 6, drug combined with DHODHi (10 μM)
Method: To identify potential small molecules that can synergize with DHODHi, the Approved Oncology Drugs Set (NIH Developmental Therapeutics Program) was screened alone and combined with DHODHi (10 μM) against Mayo 6.

Mayo 39 neurospheres = experiment: Sorafenib and DHODHi combination, SynergyFinder; format: cell-based, human; settings: Mayo 39 GBMs
Mayo 6 neurospheres = experiment: Sorafenib and DHODHi combination, SynergyFinder
[1] = tested on: EGFRviii expressing 08-387 and 913 glioblastoma cells; experiment: Gemcitabine sensitization assay (Alamar blue); format: cell-based, human; settings: varying dosages of gemcitabine and 0.05 nM of compound 1
Method: Ten thousand 08-387 or 913 glioblastoma cells per well were seeded in a 96 well plate. […] Post 72 hr of treatment, cell viability was calculated on Alamar blue absorbance reading.
To further evaluate the potential role of EGFR in compound 1 resistance, the 913 and 08-387 neurosphere lines were transduced with lentiviruses encoding EGFRvIll or GFP (as control) and these neurospheres were challenged with a relatively high dose of 1 mM compound 1.

| SMILES | Alone (growth, drug alone) (Mayo 6) | Combination (growth, drug combined with DHODHi) (Mayo 6) | further results |
| --- | --- | --- | --- |
| C=CC(=O)Nc1cc(Nc2nccc(-c3cn(C)c4ccccc34)n2)c(OC)cc1N(C)CCN(C)C [Osimertinib, osimertinib] | 0.35 | 0.0001 |  |
| CNC(=O)c1cc(Oc2ccc(NC(=O)Nc3ccc(Cl)c(C(F)(F)F)c3)c(F)c2)ccn1 [Regorafenib, regorafenib] | 1.00 | 0.64 |  |
| CNC(=O)c1cc(Oc2ccc(NC(=O)Nc3ccc(Cl)c(C(F)(F)F)c3)cc2)ccn1 [Sorafenib] |  |  | sensitization to DHODHi by Sorafenib (Mayo 39 neurospheres): moderately sensitized; most synergistic area score (Mayo 6 neurospheres; Mayo 6, Sorafenib in combination with DHODHi): 10.48; sensitization to DHODHi by Sorafenib (Mayo 6 neurospheres; Mayo 6 GBMs, SynergyFinder): moderately sensitized |
| Nc1ccn([C@@H]2O[C@H](CO)[C@@H](O)C2(F)F)c(=O)n1 [gemcitabine, reference compound] |  |  | sensitivity of glioblastomas to gemcitabine [1]: sensitive |
